Data published in patent publication US7547521B2, “Heteromultimeric ion channel receptor and uses thereof” (McGill University, priority 2000, dated 2009).
Entries after “also recorded” stand apart in the source; their conditions may differ.

Assays:
[1] = test system: homomultimeric (ASIC2A or ASIC3) and heteromultimeric (ASIC-2S.2) channels; assay: Proton-induced inward currents in oocytes expressing homomultimeric or heteromultimeric ASIC channels; type: cell-based; conditions: human and rat ASIC2A, ASIC3 or ASIC-2S.2-expressing oocytes
Method: (§1) According to method 1 described above, nuclei of Xenopus oocytes are injected with ASIC2A and ASIC3 cDNAs separately subcloned into pcDNA3 expression vector (1-5 ng). Control oocytes are injected with H2O. Oocytes are maintained at 18° C. in modified Barth's solution. Proton-activated currents are measured by two-electrode voltage clamp 1-3 days after injection. During voltage clamp (−60 mV/−100 mV)), oocytes are bathed in 116 mM NaCl, 2 mM KCl, 1.8 mM CaCl2, 10 mM acetic acid and 5 mM Hepes (pH 7.4 with NaOH). To determine proton-gating, bath solution is quickly switched to a solution of pH<7.4 for 10 sec, then returned to bath solution for washout. The stimulating solution is prepared by lowering the pH of the original bath solution with hydrochloric acid. The osmolality of the solutions is verified with an osmometer and corrected with mannitol or choline chloride. To document ionic selectivity, NaCl is replaced with LiCl or KCl. Current-voltage relationships are determined by stepping from a holding potential of −60 mV to potentials between −100 and +60 mV for 10 seconds before and during stimulation with low pH solution. FIGS. 1A (human) and 1B (rat) compare proton-activated currents carried by homomultimeric ASIC2A and ASIC3 receptors to the heteromultimeric ASIC-2S.2 receptors (ASIC2a+3). […] Species differences are also noteworthy. Indeed, using human subunits, both the early fast and sustained currents are strongly potentiated, while in the case of rat, the major effect appears to be on the sustained current only.
As described in example 2, voltage clamped oocytes expressing the ASIC-2S.2 channels are used to screen for molecules capable of modulating, activating or inhibiting channel activity.

[2] = target: T1, human ASIC2S.2 (ASIC2A+3) receptors (Homo sapiens, UniProt Q16515+Q9UHC3, A14P/I85V/M358I/P13Q); assay: Two-electrode voltage clamp of proton-gated currents in Xenopus oocytes expressing human ASIC2S.2; type: cell-based; conditions: 100 μM FMRFamide; normalised to maximal control current at pH 3
T1 construct: allowing RT-PCR amplified full length nucleic acids to be directionally subcloned into pcDNA3; expressed in transfected cells; host or cells: Xenopus laevis oocytes (nuclear injection of pcDNA3 cDNAs)
T1 sequence (Q16515 1-512): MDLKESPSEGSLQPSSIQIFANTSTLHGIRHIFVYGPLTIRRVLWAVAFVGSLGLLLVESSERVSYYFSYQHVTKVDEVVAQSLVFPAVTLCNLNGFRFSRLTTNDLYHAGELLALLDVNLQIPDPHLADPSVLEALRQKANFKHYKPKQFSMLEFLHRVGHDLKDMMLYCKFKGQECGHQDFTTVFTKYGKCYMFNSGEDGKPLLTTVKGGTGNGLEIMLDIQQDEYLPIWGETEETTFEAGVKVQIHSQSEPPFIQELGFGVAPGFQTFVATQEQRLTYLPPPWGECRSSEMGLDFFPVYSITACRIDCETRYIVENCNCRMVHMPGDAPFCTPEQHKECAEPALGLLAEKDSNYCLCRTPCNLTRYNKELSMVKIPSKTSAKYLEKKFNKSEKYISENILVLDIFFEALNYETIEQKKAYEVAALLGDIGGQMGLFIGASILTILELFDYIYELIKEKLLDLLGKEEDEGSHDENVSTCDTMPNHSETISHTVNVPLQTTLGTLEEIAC
T1 sequence (Q9UHC3 1-531 P13Q/A14P/I85V/M358I): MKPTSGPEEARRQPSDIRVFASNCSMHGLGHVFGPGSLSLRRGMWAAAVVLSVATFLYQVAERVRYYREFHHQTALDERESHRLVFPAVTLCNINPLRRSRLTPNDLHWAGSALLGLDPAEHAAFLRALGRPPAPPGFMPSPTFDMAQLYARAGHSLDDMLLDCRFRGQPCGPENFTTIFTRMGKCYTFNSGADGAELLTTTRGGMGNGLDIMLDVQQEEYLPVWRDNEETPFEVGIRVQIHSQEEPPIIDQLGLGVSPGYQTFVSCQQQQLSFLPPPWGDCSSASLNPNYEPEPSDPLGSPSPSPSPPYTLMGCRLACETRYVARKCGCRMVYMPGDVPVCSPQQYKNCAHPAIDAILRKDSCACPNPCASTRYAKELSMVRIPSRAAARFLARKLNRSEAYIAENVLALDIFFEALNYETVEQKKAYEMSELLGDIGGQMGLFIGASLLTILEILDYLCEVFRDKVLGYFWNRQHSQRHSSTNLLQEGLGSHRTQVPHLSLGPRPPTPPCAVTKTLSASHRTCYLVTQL
Method: as §1, with “Indeed, using human subunits, both the early fast and sustained currents are strongly potentiated, while in the case of rat, the major effect appears to be on the sustained current only.” left out

| Molecule | Effect on proton-induced inward currents [1] | Effect on proton-induced inward currents ([1]; listed as gadolinium) | Sensitivity and maximal response to acidification (pH dose-response curve) [2] |
| --- | --- | --- | --- |
| N=C(N)NC(=O)c1nc(Cl)c(N)nc1N [amiloride] | inhibitory effects; also recorded: antagonistic effects | – | – |
| [Gd+3] [gadolinium ions, gadolinium] | antagonistic effects | inhibitory effects | – |
| FMRFamide | – | – | increased |
